In brackets after ≈: the same amount, converted by molar mass.
Tests used:
[1] = Capacity factor (k') by HPLC (lipophilic index); format: physicochemical; conditions: n = 3, mean ± SD
Procedure: According to the method described in the literature, the capacity factor (k') of the prodrugs was determined using high-performance liquid chromatography (HPLC). Retention times of each prodrug and LZDO were measured and k' values were calculated from the following equation: k' = (t' − t0)/t0(1) where t0 is the retention time of the uracil and t' is the retention time of each compound. All experiments were conducted in triplicate.

[2] = Hydrolysis (chemical stability) in phosphate buffer pH 7.4; format: physicochemical; conditions: buffer solution pH 7.4, 37 °C, n = 3, mean ± SD
Procedure: The chemical stabilities of the target products were analyzed by high-performance liquid chromatography (HPLC) and were calculated as the amount unchanged within 24 h in buffer solutions at pH 7.4.
Methanolic stock solutions of each compound were added to 10 mL of 50 mM phosphate buffer solution (pH 7.4). The resulting solution was placed in a constant shaker bath set at 37 °C and after 24 h, a 10 μL aliquot of reaction solution was taken and analyzed by HPLC [35]. All experiments were performed in triplicate.

[3] = Metabolism in human liver microsomes; format: in vitro ADME; conditions: for half-life: human, human liver microsomes, pH 7.4, read-out: t1/2 (Human Liver Microsomes) (converted); for bioconversion to LZDO or monoester in human liver microsomes: result in words
Procedure: (§1) For a rationally designed prodrug intended to prolong the half-life of the active moiety, the metabolic lability should be sufficient and continuous. Preliminary metabolic stability was assessed in human plasma and human liver microsomes The profile of disappearance of each prodrug followed a pseudo-first-order trend, and half-lives were calculated from the linear slopes of logarithmic plots of remaining prodrug over time.
To the human liver microsomes which were dissolved in 50 mM phosphate buffer solution (pH 7.4) to a concentration of 1 mg/mL, a prodrug (100 μL, initial concentrations were 4.20–9.85 mM) in methanol and NADPH (100 μL, 1 mM) also in 50 mM phosphate buffer solution (pH 7.4) were successively added to initiate the incubation. The solution was then incubated at 37 °C and the subsequent procedures of sample preparations were similar to those in Section 3.5. All experiments were performed at least in triplicate.
(§2) Separation and quantitation of the releasing LZDO and the prodrugs were carried out using a HPLC procedure. The HPLC system was equipped with a Waters 2695 gradient pump, a Waters 2487 UV detector at 278 nm, and an Empower 2 data station. The analytical column for in vitro samples was a Boston Green ODS-AQ column (4.6 mm × 50 mm, 5 μm) and the injection volume was 10 μL. Gradient elution methods were performed with a flow rate at 1.0 mL/min on Boston Green ODS-AQ column maintained at 30 °C. The percentage of mobile phase consisting of methanol and water was varied to elute analytes (see Supplementary Material for details of the HPLC elution). The methods provided rapid analysis for quantifying LZDO, prodrug and internal standard simultaneously. When qualifying the releasing amount of LZDO, separate standard curves under specific analytic condition were prepared by spiking a known amount of LZDO and internal standard in blank matrix. Disappearance of each prodrug from in vitro samples was analyzed by taking the ratio of peak areas detected at sampling time to that at initial time. As for in vivo pharmacokinetic analysis, determinations only referred to LZDO and an Ultimate XB-C18 column (3.0 mm × 50 mm, 3 μm) with an injection volume of 2 μL was used. The flow rate on Ultimate XB-C18 column was 0.4 mL/min with a column temperature of 30 °C. The mobile phase consisted of methanol (A) and water (B). The initial mobile phase composition was 4% A/96% B and maintained for 8 min. After that the mobile phase composition was changed to 80% A/20% B over 4 min and held at that ratio for an additional 4 min. The mobile phase was returned to initial composition over 1 min and re-equilibrated for 3 min. For in vivo analytical samples, a separate standard curve was prepared using blank rat plasma and ranged from 0.39 to 50 μg/mL.

[4] = Partition coefficient, n-octanol / 50 mM phosphate buffer pH 7.4; format: physicochemical; conditions: 1-octanol/phosphate buffer (7.4) at 25 °C, n = 3, mean ± SD; for logP: n-octanol/50 mM phosphate buffer, pH 7.4
Procedure: Partitioning studies were performed with n-octanol and 50 mM phosphate buffer solution (pH 7.4) following standard procedures described in the literature. All experiments were conducted in triplicate, and the determination of LZDO was also carried out as a reference. Meanwhile, ChemBioDraw Ultra 12.0 was used to determine the calculated log p values as reference to the observed values.

[5] = Hydrolysis in 80% human plasma; format: in vitro ADME; conditions: for half-life: human, 80% human plasma, pH 7.4, read-out: t1/2 (80% Human Plasma) (converted); for bioconversion to LZDO or monoester in human plasma: result in words
Procedure: as §1
A prodrug (100 μL, initial concentrations were 4.20–9.85 mM) in methanol was added to human plasma (1000 μL) diluted to 80% with 50 mM phosphate buffer solution (pH 7.4) and was placed in a constant shaker bath set. The resulting solution was subsequently incubated at 37 °C and at appropriate time intervals methanol (1 mL) containing caffeine as internal standard was added in order to deproteinize the serum. The sample was vortexed for 3 min, and then centrifuged for 5 min at 5000 g. 900 μL of clear supernatant was withdrawn and evaporated to remove the solvent. Before analysis by RP-HPLC, the samples were dissolved in methanol (200 μL), vortexed again for 5 min, and then centrifuged for 5 min at 12,000 g. All experiments were performed at least in triplicate.
as §2

[6] = Aqueous solubility in 50 mM phosphate buffer pH 7.4; format: physicochemical; conditions: for solubility at 24 h: thermodynamic from solid
Procedure: An excess of each prodrug was added to 5 mL of 50 mM phosphate buffer solution (pH 7.4), and shaken at 25 °C in a water bath to establish equilibration for 24 h. After the equilibration, the samples were filtered through a membrane filter (0.45 μm) and analyzed by HPLC. All experiments were conducted in triplicate.

[7] = prodrug disappearance, from pseudo-first-order rate constant
[8] = aqueous buffer, 50 mM phosphate buffer pH 7.4, 25 °C, 24 h, n = 3, mean ± SD

Compound | Capacity Factor [1] | % Unchanged at 24 h (pH 7.4) [2] | % Max of LZDO Released (Human Liver Microsomes) ([3]; maximum percentage of liguzinediol released at 6 h incubation, 37 °C, NADPH) | t1/2 (Human Liver Microsomes) [3, 7] | Log P [4] | % Max of LZDO Released (80% Human Plasma) ([5]; maximum percentage of liguzinediol released at 6 h incubation, 37 °C) | t1/2 (80% Human Plasma) [5, 7] | melting point | solubility at 24 h [6, 8] | half-life [3, 7] | logP [4] | half-life [5, 7] | bioconversion to LZDO or monoester in human liver microsomes [3] | bioconversion to LZDO or monoester in human plasma [5] | Solubility ([6]; 50 mM phosphate buffer pH 7.4, 25 °C, 24 h, n = 3, mean ± SD) | solubility at 24 h ([6]; phosphate buffer, 25 °C, pH 7.4, aqueous buffer, as restated in conclusions)
3,6-Dimethyl-5-hydroxy-2-octadecanoyloxymethylpyrazine [Compound M18] | 1.055 ± 0.061 | 98.2 ± 0.6% | 15.9 ± 1.2% | 9.5 ± 0.9 h | 3.38 ± 0.20 | 15.6 ± 1.6% | 9.6 ± 1.1 h |  |  |  |  |  |  |  |  | 
Cc1nc(COC(=O)C(C)(C)C)c(C)nc1COC(=O)C(C)(C)C [Compound D5, 3,6-Dimethyl-2,5-dipivaloyloxymethylpyrazine] | 0.364 ± 0.039 | 96.1 ± 0.2% |  |  |  |  |  | 80 to 82 °C | 29.9 ± 1.36 µg/mL (≈ 0.0889 mM) | 3.2 ± 0.3 h | 2.5 ± 0.18 | 3.4 ± 0.4 h |  |  |  | 
CCCCCCCCCC(=O)OCc1nc(C)c(COC(=O)CCCCCCCCC)nc1C [Compound D10, 2,5-Didecanoyloxymethyl-3,6-dimethylpyrazine] | 1.068 ± 0.057 | 98.7 ± 0.4% |  |  |  |  |  | 46 to 47 °C |  | 4.1 ± 0.5 h | 2.87 ± 0.16 | 4.2 ± 0.4 h |  |  |  | 
CCCCCCCCCCCC(=O)OCc1nc(C)c(COC(=O)CCCCCCCCCCC)nc1C [Compound D12, 2,5-Didodecanoyloxymethyl-3,6-dimethylpyrazine] | 1.640 ± 0.032 | 99.8 ± 0.5% |  |  |  |  |  | 55 to 56 °C |  | 7.9 ± 0.9 h | 3.77 ± 0.21 | 7.9 ± 1 h |  |  |  | 
CCCCCCCCCCCCCCCC(=O)OCc1nc(C)c(COC(=O)CCCCCCCCCCCCCCC)nc1C [Compound D16, 2,5-Dihexadecanoyloxymethyl-3,6-dimethylpyrazine] | 3.911 ± 0.042 | stable ^c |  |  | thoroughly partitioned into n-octanol |  |  | 74 to 75 °C |  |  |  |  | no bioconversion | no bioconversion |  | 
CCCCCCCCCCCCCCCCCC(=O)OCc1nc(C)c(COC(=O)CCCCCCCCCCCCCCCCC)nc1C [Compound D18, 3,6-Dimethyl-2,5-dioctadecanoyloxymethylpyrazine] | 6.134 ± 0.084 | stable ^c |  |  | thoroughly partitioned into n-octanol |  |  | 75 to 76 °C |  |  |  |  | no bioconversion | no bioconversion |  | 
Cc1nc(COC(=O)C(C)(C)C)c(C)nc1CO [Compound M5, 3,6-Dimethyl-5-hydroxymethyl-2-pivaloyloxymethylpyrazine] | 0.210 ± 0.020 | 98.9 ± 0.3% |  |  |  |  |  | 66 to 67 °C |  | 5.1 ± 0.2 h | 1.33 ± 0.1 | 2.6 ± 0.1 h |  |  | 8000 ± 350 µg/mL (≈ 31.7 mM) | 8000 µg/mL (≈ 31.7 mM)
CCCCCCCCCC(=O)OCc1nc(C)c(CO)nc1C [Compound M10, 2-Decanoyloxymethyl-3,6-dimethyl-5-hydroxymethylpyrazine] | 0.400 ± 0.015 | 98.9 ± 0.3% |  |  |  |  |  | 31 to 32 °C | 8.89 ± 0.21 µg/mL (≈ 0.0276 mM) | 2.1 ± 0.6 h | 2.48 ± 0.04 | 2.3 ± 0.2 h |  |  |  | 
CCCCCCCCCCCC(=O)OCc1nc(C)c(CO)nc1C [Compound M12, 3,6-Dimethyl-2-dodecanoyloxymethyl-5-hydroxymethylpyrazine] | 0.514 ± 0.012 | 99.7 ± 0.2% |  |  |  |  |  | 40 to 41 °C | 2.23 ± 0.11 µg/mL (≈ 0.00636 mM) | 2.2 ± 0.1 h | 3.12 ± 0.15 | 2.6 ± 0.5 h |  |  |  | 
CCCCCCCCCCCCCCCC(=O)OCc1nc(C)c(CO)nc1C [Compound M16, 3,6-Dimethyl-2-hexadecanoyloxymethyl-5-hydroxymethylpyrazine] | 0.834 ± 0.012 | 99.4 ± 0.4% |  |  |  |  |  | 60 to 62 °C |  | 3.3 ± 0.7 h | 3.25 ± 0.13 | 3.3 ± 0.6 h |  |  |  | 
Cc1nc(CO)c(C)nc1CO [Liguzinediol, 2,5-Dihydroxymethyl-3,6-dimethylpyrazine] | 0.100 ± 0.004 |  |  |  |  |  |  |  | 224000 µg/mL (≈ 1330 mM) |  | -1.12 ± 0.11 |  |  |  |  | 
